According to publication PMC6934184, “Selective DNA-PKcs inhibition extends the therapeutic index of localized radiotherapy and chemotherapy” (The Journal of Clinical Investigation, 2019):

Molecular target: T1, MARK3 (Homo sapiens, UniProt P27448)
T1 construct: purchased Thermo Fisher Scientific (Life Technologies) SelectScreen
Experiment: SelectScreen Z'LYTE
Type: biochemical
Procedure, shortened: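 Percent values come from Thermo SelectScreen profiling of NU5455, combining activity and binding assays. CSF1R was run in Z'LYTE format at Km app ATP, and CAMK1 in Adapta format with ATP listed at 10.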

T1 sequence (P27448 whole entry): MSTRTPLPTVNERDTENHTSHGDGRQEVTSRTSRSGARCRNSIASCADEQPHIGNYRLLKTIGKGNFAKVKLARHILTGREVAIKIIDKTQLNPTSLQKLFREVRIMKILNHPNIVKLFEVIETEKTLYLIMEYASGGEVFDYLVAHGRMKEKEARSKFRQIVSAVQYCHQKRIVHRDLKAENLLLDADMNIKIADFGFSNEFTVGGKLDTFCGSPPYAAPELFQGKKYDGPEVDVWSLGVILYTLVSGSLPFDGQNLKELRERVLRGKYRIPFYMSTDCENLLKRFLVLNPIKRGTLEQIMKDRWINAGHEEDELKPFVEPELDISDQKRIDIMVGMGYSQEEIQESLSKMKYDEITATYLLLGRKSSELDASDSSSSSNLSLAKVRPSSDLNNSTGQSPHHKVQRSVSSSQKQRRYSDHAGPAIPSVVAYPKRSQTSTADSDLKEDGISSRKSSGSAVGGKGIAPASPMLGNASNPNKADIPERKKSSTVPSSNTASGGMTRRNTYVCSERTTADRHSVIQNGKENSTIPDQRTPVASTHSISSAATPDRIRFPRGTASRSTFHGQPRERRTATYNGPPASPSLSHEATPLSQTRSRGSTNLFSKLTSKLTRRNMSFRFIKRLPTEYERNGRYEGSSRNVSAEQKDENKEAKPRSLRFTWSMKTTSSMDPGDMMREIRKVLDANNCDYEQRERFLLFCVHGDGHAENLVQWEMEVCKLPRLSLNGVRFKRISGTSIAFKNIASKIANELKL

## CN(C(=O)CN1CCOCC1)c1ccc2sc3c(-c4cccc5c(=O)cc(N6CC7CCC(C6)O7)oc45)cccc3c2c1 [NU5455]
  inhibition at 1 µM: 11.4%
